This note sets out measurements from PubChem BioAssay AID2060340 (Molecular Pharmacology Branch, DTP, NCI, 2025).

Molecules are shown by their SMILES. “And” between values parts separate entries of the source, which are not always exact repeats. Equal entries are not always repeated.

The test system of the assay is 349418-098-R-PDC spheroids, viability, % test/control. As to the kind of experiment: Anticancer human tumor 349418-098-R-PDC patient-derived lung adenocarcinoma cell line growth inhibition [IpAb]. The following applies: spheroids with HUVEC and MSC; for viability, T/C: stronger effect = lower value. A digest of the protocol:
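Multi-cell spheroids of 60% tumour cells, 25% HUVEC and 15% MSC in ultra-low-attachment U-bottom wells, treated with agents combined with ipatasertib or abemaciclib. Half-log ranges top out near clinical Cmax, or 10 microM when Cmax is unknown.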

The term IC50 denotes the concentration needed to halve the response being measured. One may read the viability, T/C as the result in the treated group divided by that in the control group, in per cent.
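Note: spheroids exposed to compounds for 7 days.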

With `C=CC(=O)N1CCN(c2nc(=O)n(-c3c(C)ccnc3C(C)C)c3nc(-c4c(O)cccc4F)c(F)cc23)C(C)C1` (configuration not stated) + CC(C)NCC(C(=O)N1CCN(c2ncnc3c2C(C)CC3O)CC1)c1ccc(Cl)cc1, the IC50 by setting is: (curve of first compound, second compound 0.1 µM) 4.01 µM; (curve of first compound, second compound 0.316 µM) 1 µM; (curve of first compound, second compound 1 µM) less than 0.0316 µM; (curve of first compound, second compound 3.16 µM) less than 0.0316 µM; (curve of first compound, second compound 10 µM) less than 0.0316 µM. Also, the viability, T/C by setting is: (second compound 0.1 µM, first compound 0.0316 µM) 95.8%; (second compound 0.1 µM, first compound 0.1 µM) 89.6%; (second compound 0.1 µM, first compound 0.316 µM) 76.7%; (second compound 0.1 µM, first compound 1 µM) 70.2%; (second compound 0.1 µM, first compound 3.16 µM) 64.7%; (second compound 0.1 µM, first compound 10 µM) 21.7%. For the same molecule, the viability, T/C is, setting by setting: (second compound 0.316 µM, first compound 0.0316 µM) 51.9%; (second compound 0.316 µM, first compound 0.1 µM) 55.1%; (second compound 0.316 µM, first compound 0.316 µM) 51.4%; (second compound 0.316 µM, first compound 1 µM) 50.2%; (second compound 0.316 µM, first compound 3.16 µM) 23.9%; (second compound 0.316 µM, first compound 10 µM) 12.5%. The viability, T/C by setting is: (second compound 1 µM, first compound 0.0316 µM) 28.4%; (second compound 1 µM, first compound 0.1 µM) 28.3%; (second compound 1 µM, first compound 0.316 µM) 19.6%; (second compound 1 µM, first compound 1 µM) 17.2%; (second compound 1 µM, first compound 3.16 µM) 11.9%; (second compound 1 µM, first compound 10 µM) 7.34%. Moreover, the viability, T/C reads like this: (second compound 3.16 µM, first compound 0.0316 µM) 12.3%; (second compound 3.16 µM, first compound 0.1 µM) 13.3%; (second compound 3.16 µM, first compound 0.316 µM) 11.8%; (second compound 3.16 µM, first compound 1 µM) 10%; (second compound 3.16 µM, first compound 3.16 µM) 6.96%; (second compound 3.16 µM, first compound 10 µM) 5.34%. Also, the viability, T/C runs as follows: (second compound 10 µM, first compound 0.0316 µM) 6.48%; (second compound 10 µM, first compound 0.1 µM) 8.12%; (second compound 10 µM, first compound 0.316 µM) 6.94%; (second compound 10 µM, first compound 1 µM) 5.09%; (second compound 10 µM, first compound 3.16 µM) 5.95%; (second compound 10 µM, first compound 10 µM) 4.63%.
On to `CC1(C)CCC(CN2CCN(c3ccc(C(=O)NS(=O)(=O)c4ccc(NCC5CCOCC5)c([N+](=O)[O-])c4)c(Oc4cnc5[nH]ccc5c4)c3)CC2)=C(c2ccc(Cl)cc2)C1`, for which the viability, T/C was 110% and 115% (compound 0.0316 µM); 109% and 94.8% (compound 0.1 µM); 107% and 101% (compound 0.316 µM); 103% and 106% (compound 1 µM); 82.2% and 92.3% (compound 3.16 µM); 6.95% and 3.46% (compound 10 µM). In addition, the 50% inhibitory concentration (IC50) (curve of compound) was 5.17 µM and 5.47 µM.
